From patent US12162881B2, “Forms and compositions of inhibitors of JAK2” (Ajax Therapeutics, Inc., priority 2021, dated 2024)
Converted amounts (≈) assume the structure as drawn. Like-named read-outs stand apart in the source and are kept apart here.

Tests used:
Format in all cases: physicochemical
[1] = Kinetic solubility of Compound 1 Lot II, visually estimated at ambient temperature; conditions: thermodynamic from solid
Protocol: Kinetic solubility of Compound 1 Lot II was visually estimated at ambient temperature (Table 22). Aliquots of various solvents were added to weighed samples of Compound 1 Lot II with agitation at ambient temperature until complete dissolution was achieved, as judged by visual observation. If dissolution occurred after the addition of the first aliquot, values were reported as “>”.

[2] = Dynamic vapor sorption (DVS) hygroscopicity; conditions: for Hysteresis: in % (unit assumed)
Protocol: Automated vapor sorption (VS) data were collected on a Surface Measurement System DVS Intrinsic instrument. Samples were not dried prior to analysis. Sorption and desorption data were collected over a range from 5% to 95% RH at 10% RH increments under a nitrogen purge. The equilibrium criterion used for analysis was less than 0.0100% weight change in 5 minutes with a maximum equilibration time of 3 hours. Data were not corrected for the initial moisture content of the samples.

[3] = Variable relative humidity XRPD (VRH-XRPD)
Protocol: XRPD patterns were collected with a PANalytical X'Pert PRO MPD diffractometer using an incident beam of Cu Kα radiation produced using a long, fine-focus source and a nickel filter. The diffractometer was configured using the symmetric Bragg-Brentano geometry. Data were collected and analyzed using Data Collector software v. 5.5. Prior to the analysis, a silicon specimen (NIST SRM 640f) was analyzed to verify the observed position of the Si 111 peak is consistent with the NIST-certified position. A specimen of the sample was packed in a nickel-coated copper well. Antiscatter slits (SS) were used to minimize the background generated by air. Soller slits for the incident and diffracted beams were used to minimize broadening from axial divergence. Diffraction patterns were collected using a scanning position-sensitive detector (X'Celerator) located 240 mm from the sample and Data Collector software v. 5.5.
An Anton Paar temperature-humidity chamber (THC) was used while collecting in-situ XRPD patterns as a function of humidity. The temperature of the specimen was changed with a Peltier thermoelectric device located directly under the specimen holder and monitored with a platinum-100 resistance sensor located in the specimen holder. The thermoelectric device was powered and controlled by an Anton Paar TCU 50 interfaced with Data Collector. The humidity was generated with an RH-200 manufactured by VTI Inc. and carried by a flow of nitrogen gas. The humidity was monitored by a HygroClip sensor manufactured by Rotronic located next to the specimen inside the THC.
VRH-XRPD analysis was conducted to help determine water activity boundary for the solid-state conversion between hydrated Form A and anhydrous Form B. This method was utilized due the observed high tendency of Compound 1 to form solvates, which precluded the use of solvent-mediated approach.
Overall, two VRH-XRPD experiments were conducted to qualitatively evaluate RH conditions leading to predominance of Form A over Form B and vice versa. The kinetic component was not assessed.
The first VRH-XRPD experiment was conducted with a goal of observing dehydration of hydrated Form A. An initial XRPD scan was, therefore, acquired on Form A equilibrated in-situ at ambient RH for 45 minutes, which at the time of the analysis was ˜30%. The XRPD pattern from this scan was consistent with Form A (FIG. 39, top).
XRPD patterns were collected throughout the course of the experiment, each with a 10 minute scan.
XRPD patterns were collected throughout the course of the experiment, each with a 10 minute scan. The XRPD patterns remained Form B until the RH reached approximately 60% RH, where Form A became the primary phase with some Form B remaining (FIG. 41, top two spectra). Further decrease of Form B was observed through the remainder of the 60% RH hold at which point the experiment ended (FIG. 41, bottom two spectra). Complete conversion to Form A from Form B was not observed under these conditions.

[4] = Target RH 5.0%, listed as Lot II
[5] = Target RH 15.0%, listed as Lot II
[6] = Target RH 25.0%, listed as Lot II
[7] = Target RH 35.0%, listed as Lot II
[8] = Target RH 45.0%, listed as Lot II
[9] = Target RH 55.0%, listed as Lot II
[10] = Target RH 65.0%, listed as Lot II
[11] = Target RH 75.0%, listed as Lot II
[12] = Target RH 85.0%, listed as Lot II
[13] = Target RH 95.0%, listed as Lot II
[14] = desorption from 95% to 5% RH, listed as Lot II
[15] = sorption from 5% to 95% RH, listed as Lot II

Work on `CC(=O)Nc1cc(Oc2cnc3nc(Nc4cc(C(F)(F)F)cn(C)c4=O)n(C)c3c2C#N)ccn1` [Compound 1 Lot II, N-(4-((7-cyano-1-methyl-2-((1-methyl-2-oxo-5-(trifluoromethyl)-1,2-dihydropyridin-3-yl)amino)-1H-imidazo[4,5-b]pyridin-6-yl)oxy)pyridin-2-yl)acetamide] yielded a solubility ([1]; 5:95 HFIPA/H2O (v/v), aqueous with cosolvent or surfactant or cyclodextrin, 5:95 HFIPA/H2O (v/v), ambient temperature, read-out: Solubility (mg/mL)) of under 1 mg/mL, a solubility ([1]; 50:50 DMA/H2O (v/v), aqueous with cosolvent or surfactant or cyclodextrin, 50:50 DMA/H2O (v/v), ambient temperature, read-out: Solubility (mg/mL)) of under 1 mg/mL and a solubility ([1]; 50:50 MeOH/CHCl3 (v/v), organic solvent or mixture, 50:50 MeOH/CHCl3 (v/v), ambient temperature, read-out: Solubility (mg/mL)) of 5 to 20 mg/mL (≈ 10 to 40.1 mM). The solubility ([1]; 50:50 MeOH/DCM (v/v), organic solvent or mixture, 50:50 MeOH/DCM (v/v), ambient temperature, read-out: Solubility (mg/mL)) was 5 to 20 mg/mL (≈ 10 to 40.1 mM), the solubility ([1]; 50:50 MeOH/H2O (v/v), aqueous with cosolvent or surfactant or cyclodextrin, 50:50 MeOH/H2O (v/v), ambient temperature, read-out: Solubility (mg/mL)) was under 1 mg/mL and the solubility ([1]; 50:50 TFE/H2O (v/v), aqueous with cosolvent or surfactant or cyclodextrin, 50:50 TFE/H2O (v/v), ambient temperature, read-out: Solubility (mg/mL)) was 1 to 4.9 mg/mL (≈ 2.01 to 9.83 mM). It also gave a solubility ([1]; 50:50 THF/H2O (v/v), aqueous with cosolvent or surfactant or cyclodextrin, 50:50 THF/H2O (v/v), ambient temperature, read-out: Solubility (mg/mL)) of 1 to 4.9 mg/mL (≈ 2.01 to 9.83 mM), a solubility ([1]; 50:50 acetone/water (v/v), aqueous with cosolvent or surfactant or cyclodextrin, 50:50 acetone/water (v/v), ambient temperature, read-out: Solubility (mg/mL)) of 1 to 4.9 mg/mL (≈ 2.01 to 9.83 mM) and a solubility ([1]; ACN, organic solvent or mixture, ACN, ambient temperature, read-out: Solubility (mg/mL)) of under 1 mg/mL. It also gave a solubility ([1]; AcOH, organic solvent or mixture, AcOH, ambient temperature, read-out: Solubility (mg/mL)) of 5 to 20 mg/mL (≈ 10 to 40.1 mM), a solubility ([1]; CHCl3, organic solvent or mixture, CHCl3, ambient temperature, read-out: Solubility (mg/mL)) of under 1 mg/mL and a solubility ([1]; DCM, organic solvent or mixture, DCM, ambient temperature, read-out: Solubility (mg/mL)) of under 1 mg/mL. The solubility ([1]; DMA, organic solvent or mixture, DMA, ambient temperature, read-out: Solubility (mg/mL)) was 5 to 20 mg/mL (≈ 10 to 40.1 mM), the solubility ([1]; DMF, organic solvent or mixture, DMF, ambient temperature, read-out: Solubility (mg/mL)) was 1 to 4.9 mg/mL (≈ 2.01 to 9.83 mM) and the solubility ([1]; DMSO, organic solvent or mixture, DMSO, ambient temperature, read-out: Solubility (mg/mL)) was 5 to 20 mg/mL (≈ 10 to 40.1 mM). The solubility ([1]; H2O, water, H2O, ambient temperature, read-out: Solubility (mg/mL)) was under 1 mg/mL, the solubility ([1]; HFIPA, organic solvent or mixture, HFIPA, ambient temperature, read-out: Solubility) was 84 mg/mL (≈ 169 mM) and the solubility ([1]; HFIPA, organic solvent or mixture, HFIPA, ambient temperature, read-out: Solubility (mg/mL)) was 5 to 20 mg/mL (≈ 10 to 40.1 mM). It also gave a solubility ([1]; MeOH, organic solvent or mixture, MeOH, ambient temperature, read-out: Solubility (mg/mL)) of under 1 mg/mL, a solubility ([1]; NMP, organic solvent or mixture, NMP, ambient temperature, read-out: Solubility (mg/mL)) of 5 to 20 mg/mL (≈ 10 to 40.1 mM) and a solubility ([1]; TFE, organic solvent or mixture, TFE, ambient temperature, read-out: Solubility (mg/mL)) of 5 to 20 mg/mL (≈ 10 to 40.1 mM). The solubility ([1]; THF, organic solvent or mixture, THF, ambient temperature, solution almost completely clear after 24 h, read-out: Solubility (mg/mL)) was 1 to 4.9 mg/mL (≈ 2.01 to 9.83 mM), the solubility ([1]; THF, organic solvent or mixture, THF, left at ambient temperature overnight, read-out: Solubility) was at least 1 mg/mL and the solubility ([1]; acetone, organic solvent or mixture, Acetone, ambient temperature, read-out: Solubility (mg/mL)) was under 1 mg/mL. The solubility ([1]; ethylene glycol, organic solvent or mixture, Ethylene glycol, ambient temperature, read-out: Solubility (mg/mL)) was under 1 mg/mL, the solubility ([1]; organic solvent or mixture, AcOH, DMF, DMSO, 50:50 MeOH/DCM, 50:50 MeOH/CHCl3, NMP, TFE, and 50:50 TFE/H2O, ambient temperature, read-out: Solubility (limited solubility values)) was 1 to 20 mg/mL (≈ 2.01 to 40.1 mM) and the “Desorp Mass Change (%)” value [2, 4] was −0.019%. The “Sorp Mass Change (%)” value [2, 4] was 0.000%, the “Desorp Mass Change (%)” value [2, 5] was 0.332% and the “Sorp Mass Change (%)” value [2, 5] was 0.152%. For the same compound, the Hysteresis [2, 5] was 0.180, the “Desorp Mass Change (%)” value [2, 6] was 5.623% and the “Sorp Mass Change (%)” value [2, 6] was 0.250%. The Hysteresis [2, 6] was 5.373, the “Desorp Mass Change (%)” value [2, 7] was 6.984% and the “Sorp Mass Change (%)” value [2, 7] was 1.468%. For the same compound, the Hysteresis [2, 7] was 5.516, the “Desorp Mass Change (%)” value [2, 8] was 7.374% and the “Sorp Mass Change (%)” value [2, 8] was 4.861%. The Hysteresis [2, 8] was 2.513, the “Desorp Mass Change (%)” value [2, 9] was 7.842% and the Sorp Mass Change (%) [2, 9] was 6.99%. The Hysteresis [2, 9] was 0.848, the “Desorp Mass Change (%)” value [2, 10] was 8.505% and the “Sorp Mass Change (%)” value [2, 10] was 7.697%. The Hysteresis [2, 10] was 0.808, the “Desorp Mass Change (%)” value [2, 11] was 8.972% and the “Sorp Mass Change (%)” value [2, 11] was 8.454%. For the same compound, the Hysteresis [2, 11] was 0.518, the “Desorp Mass Change (%)” value [2, 12] was 9.206% and the “Sorp Mass Change (%)” value [2, 12] was 9.042%. For the same compound, the Hysteresis [2, 12] was 0.164, the “Desorp Mass Change (%)” value [2, 13] was 9.408% and the “Sorp Mass Change (%)” value [2, 13] was 9.408%. The “DVS weight loss upon desorption” value [2, 14] was 9.4%, the “DVS weight loss upon desorption as water” value [2, 14] was “approximately 2.9 mol/mol H2O” and the “post-DVS XRPD” value ([2]; solid recovered after DVS cycle, listed as Lot II) was “mostly Form B with some peaks attributed to Form O present”. For the same compound, the DVS weight gain [2, 15] was 9.4%, the “DVS weight gain as water uptake” value [2, 15] was “approximately 2.9 mol/mol H2O” and the DVS weight gain ([2]; sorption from 25% to 55% RH) was 6.7%. For the same compound, the “DVS weight gain as water uptake” value ([2]; sorption from 25% to 55% RH) was about 2.0 mol/mol H2O and the DVS hysteresis observation ([2]; sorption/desorption 5-95% RH, listed as Lot II) was “Hysteresis was observed”.
For `CC(=O)Nc1cc(Oc2cnc3nc(Nc4cc(C(F)(F)F)cn(C)c4=O)n(C)c3c2C#N)ccn1` [Compound 1 Form B, N-(4-((7-cyano-1-methyl-2-((1-methyl-2-oxo-5-(trifluoromethyl)-1,2-dihydropyridin-3-yl)amino)-1H-imidazo[4,5-b]pyridin-6-yl)oxy)pyridin-2-yl)acetamide], the “RH at which Form A became the primary phase” value ([3]; Experiment 2, RH incrementally increased from 15%, starting from Form B) was “approximately 60 % RH”, the “RH below which the form likely exists” value ([3]; VRH-XRPD and DVS data combined) was “below 20 % RH” and the “RH up to which the form may be kinetically stable” value ([3]; VRH-XRPD and DVS data combined) was 40-60 % RH.
